The values that follow come from patent publication US20220009874A1, “CATALYTIC SYNTHESIS OF ANTI-UV AND ANTIOXIDANT CONJUGATED 8-8 DIMERS IN A GREEN SOLVENT” (INSTITUT DES SCIENCES ET INDUSTRIES DU VIVANT ET DE …, priority 2018, published 2022).

The nature of this series: UV absorbance of the dimers in ethanol compared with sinapoyl malate. The format is physicochemical. To be noted: 10 μmol·L^−1 in ethanol; for absorption band: FIG. 1. The text has this: a. […] A change of the R3 radical can also affect these properties (FIG. 11).

With `COc1cc(/C=C/C(=O)OC(CC(=O)O)C(=O)O)cc(OC)c1O` (stereo not drawn) [sinapoyl malate, reference compound], the absorption band is given as 200-370 nm.
Take `CCOC(=O)C(=Cc1cc(OC)c(O)c(OC)c1)C(=Cc1cc(OC)c(O)c(OC)c1)C(=O)OCC` [ethyl β-β disinapate]: the absorption band is on record as 200-400 nm. Further, the “anti-UV properties (UV absorbance) compared with sinapoyl malate” value (FIGS. 1 to 16) is on record as “higher anti-UV properties than sinapoyl malate”.
